{"source": "patent US20070048371A1", "about": "“Pharmaceutical formulations/composition of guanfacine suitable for single dose form administration daily” (priority 2005, published 2007)", "key": {"[1]": {"experiment": "Example 2: open-label dose-escalation pharmacokinetic and safety study in children and adolescents with ADHD", "assay_type": "in vivo, human", "settings": "for AUC(0-t) / AUC(0-inf) / Cmax / Tmax / half-life / Vd/F: both sexes, human, plasma; for Vd/F: read-out: Vz/F", "procedure": "Objective: The objective of this study was to assess the pharmacokinetics of controlled-release guanfacine after a single 2 mg dose or multiple doses of 2 mg and 4 mg from Table 2.\nMethods: An open-label, dose-escalation study in male and female children (aged 6-12 years) and adolescents (aged 13-17 years) with ADHD. Subjects weighed 25 kg (55 lb) or more but were not considered overweight in the opinion of the investigator. Their electrocardiogram readings (ECGs) were within normal ranges, and their blood pressure measurements were within the 95th percentile for their age, height, and gender. […] Informed consent was given by the patient's parent or guardian.\n[…] The dose was then titrated down to 3 mg on days 30 to 32, and 2 mg on days 33 to 35. Pharmacokinetic assessments were made after the single 2 mg dose and after 6 days of repeated 2 mg and 4 mg doses."}, "[2]": {"experiment": "Example 3: Phase I single-dose crossover bioequivalence/dose proportionality study, 1 mg, 2 mg, 4 mg tablets, healthy adult volunteers", "assay_type": "in vivo, human", "settings": "human, in vivo; for AUC(0-t): AUC0-last", "procedure": "Objectives: The study was designed to assess the bioequivalence of guanfacine 2 mg and 4 mg tablets from table 2 and to investigate the dose proportionality of 1 mg, 2 mg, and 4 mg doses.\nMethods: This was a Phase I, randomized, open-label, single-dose, five period, four-treatment crossover design with a separate lead-in period.\nForty-nine (49) healthy adult volunteers completed the study. During period 1, all subjects received a single 1 mg dose administered after and overnight fast. Prior to period 2, subjects were randomly assigned to one of four sequence groups, with 13 subjects per sequence. During treatment periods 2-5, subjects received their assigned treatment of 2 mg or 4 mg. All subjects were to receive two single doses of 2 mg tablets and two single doses of 4 mg tablets during the course of the study. Doses during periods 2-5 were also administered after an overnight fast."}, "[3]": {"settings": "28 children and adolescents with ADHD, 2-4 mg qd dose escalation"}, "[4]": {"settings": "po, 2 mg, single 2 mg oral dose, Day 1, adolescents 13-17 yrs, ADHD patients, N = 14"}, "[5]": {"settings": "po, 2 mg, single 2 mg oral dose, Day 1, children 6-12 yrs, ADHD patients, N = 14"}, "[6]": {"settings": "single 2 mg oral dose, Day 1, adolescents 13-17 yrs, ADHD patients, N = 14"}, "[7]": {"settings": "single 2 mg oral dose, Day 1, children 6-12 yrs, ADHD patients, N = 14"}}, "note": "Where two headings read alike, the source gives them in different places.", "data": [{"smiles": "N=C(N)NC(=O)Cc1c(Cl)cccc1Cl", "note": "[guanfacine]", "values": [{"measurement": "abnormalities on ECGs, hematologic parameters, or serum chemistries", "setting": "[1]; [3]", "result": "No clinically significant abnormalities"}, {"measurement": "discontinuations due to adverse events", "setting": "[1]; [3]", "result": "no discontinuations"}, {"measurement": "severity of most AEs", "setting": "[1]; [3]", "result": "mild to moderate"}, {"measurement": "subjects with somnolence (AE possibly or probably due to treatment)", "setting": "[1]; [3]", "result": 93, "unit": "%"}, {"measurement": "subjects judged to have severe somnolence", "setting": "[1]; 28 children and adolescents with ADHD, 2-4 mg qd dose escalation, 6 subjects", "result": 21, "unit": "%"}, {"measurement": "CL/F", "setting": "[1]; Day 14, 2 mg once daily oral, adolescents 13-17 yrs, ADHD patients, N = 14", "result": "826 ± 486", "unit": "mL/min"}, {"measurement": "CL/F", "setting": "[1]; Day 14, 2 mg once daily oral, children 6-12 yrs, ADHD patients, N = 14", "result": "552 ± 215", "unit": "mL/min"}, {"measurement": "CL/F", "setting": "[1]; Day 28, 4 mg once daily oral, adolescents 13-17 yrs, ADHD patients, N = 14", "result": "607 ± 166", "unit": "mL/min"}, {"measurement": "CL/F", "setting": "[1]; Day 28, 4 mg once daily oral, children 6-12 yrs, ADHD patients, N = 14", "result": "522 ± 212", "unit": "mL/min"}, {"measurement": "AUC(0-t)", "setting": "[1]; oral, 2 mg, dose of 2 mg of guanfacine, fasted patients ages 6-12 suffering from ADHD, read-out: AUC0-last", "result": "~56.9", "unit": "ng·h/mL"}, {"measurement": "AUC(0-inf)", "setting": "[1]; oral, 2 mg, dose of 2 mg of guanfacine, fasted patients ages 6-12 suffering from ADHD, read-out: AUC∞", "result": "~65.2", "unit": "ng·h/mL"}, {"measurement": "Cmax", "setting": "[1]; oral, 2 mg, dose of 2 mg of guanfacine, fasted patients ages 6-12 suffering from ADHD, read-out: mean Cmax", "result": "~2.55", "unit": "ng/mL"}, {"measurement": "Tmax", "setting": "[1]; oral, 2 mg, dose of 2 mg of guanfacine, fasted patients ages 6-12 suffering from ADHD, read-out: median Tmax", "result": "~5", "unit": "h"}, {"measurement": "AUC(0-t)", "setting": "[1]; oral, 2 mg, dose of 2 mg of guanfacine, fasted patients ages 13-17 suffering from ADHD, read-out: AUC0-last", "result": "~42.7", "unit": "ng·h/mL"}, {"measurement": "AUC(0-inf)", "setting": "[1]; oral, 2 mg, dose of 2 mg of guanfacine, fasted patients ages 13-17 suffering from ADHD, read-out: AUC∞", "result": "~47.2", "unit": "ng·h/mL"}, {"measurement": "Cmax", "setting": "[1]; oral, 2 mg, dose of 2 mg of guanfacine, fasted patients ages 13-17 suffering from ADHD, read-out: mean Cmax", "result": "~1.69", "unit": "ng/mL"}, {"measurement": "Tmax", "setting": "[1]; oral, 2 mg, dose of 2 mg of guanfacine, fasted patients ages 13-17 suffering from ADHD, read-out: median Tmax", "result": "~5", "unit": "h"}, {"measurement": "half-life", "setting": "[1]; oral, 2 mg, measured for the 2 mg formulation, fasted patients ages 6-12 suffering from ADHD", "result": "14.4 ± 2.4", "unit": "h"}, {"measurement": "half-life", "setting": "[1]; oral, 2 mg, measured for the 2 mg formulation, fasted patients ages 13-17 suffering from ADHD", "result": "17.9 ± 5.8", "unit": "h"}, {"measurement": "AUC(0-t)", "setting": "[1]; po, 2 mg, Day 14, 2 mg once daily oral, adolescents 13-17 yrs, ADHD patients, N = 14, read-out: AUC0-24", "result": "48.2 ± 16.1", "unit": "ng·h/mL"}, {"measurement": "Cmax", "setting": "[1]; po, 2 mg, Day 14, 2 mg once daily oral, adolescents 13-17 yrs, ADHD patients, N = 14, read-out: Cmax", "result": "2.86 ± 0.77", "unit": "ng/mL"}, {"measurement": "Tmax", "setting": "[1]; po, 2 mg, Day 14, 2 mg once daily oral, adolescents 13-17 yrs, ADHD patients, N = 14, read-out: Tmax", "result": 4.53, "unit": "h"}, {"measurement": "AUC(0-t)", "setting": "[1]; po, 2 mg, Day 14, 2 mg once daily oral, children 6-12 yrs, ADHD patients, N = 14, read-out: AUC0-24", "result": "70 ± 28.3", "unit": "ng·h/mL"}, {"measurement": "Cmax", "setting": "[1]; po, 2 mg, Day 14, 2 mg once daily oral, children 6-12 yrs, ADHD patients, N = 14, read-out: Cmax", "result": "4.39 ± 1.66", "unit": "ng/mL"}, {"measurement": "Tmax", "setting": "[1]; po, 2 mg, Day 14, 2 mg once daily oral, children 6-12 yrs, ADHD patients, N = 14, read-out: Tmax", "result": 4.98, "unit": "h"}, {"measurement": "half-life", "setting": "[1]; [4]", "result": "17.9 ± 5.77", "unit": "h"}, {"measurement": "AUC(0-t)", "setting": "[1]; po, 2 mg, single 2 mg oral dose, Day 1, adolescents 13-17 yrs, ADHD patients, N = 14, read-out: AUC0-t", "result": "42.7 ± 12.9", "unit": "ng·h/mL"}, {"measurement": "AUC(0-inf)", "setting": "[1]; po, 2 mg, single 2 mg oral dose, Day 1, adolescents 13-17 yrs, ADHD patients, N = 14, read-out: AUC0-∞", "result": "47.3 ± 13.7", "unit": "ng·h/mL"}, {"measurement": "Cmax", "setting": "[1]; po, 2 mg, single 2 mg oral dose, Day 1, adolescents 13-17 yrs, ADHD patients, N = 14, read-out: Cmax", "result": "1.69 ± 0.43", "unit": "ng/mL"}, {"measurement": "Tmax", "setting": "[1]; po, 2 mg, single 2 mg oral dose, Day 1, adolescents 13-17 yrs, ADHD patients, N = 14, read-out: Tmax", "result": 4.96, "unit": "h"}, {"measurement": "Vd/F", "setting": "[1]; [4]", "result": 1240, "unit": "L"}, {"measurement": "half-life", "setting": "[1]; [5]", "result": "14.4 ± 2.39", "unit": "h"}, {"measurement": "AUC(0-t)", "setting": "[1]; po, 2 mg, single 2 mg oral dose, Day 1, children 6-12 yrs, ADHD patients, N = 14, read-out: AUC0-t", "result": "56.9 ± 22", "unit": "ng·h/mL"}, {"measurement": "AUC(0-inf)", "setting": "[1]; po, 2 mg, single 2 mg oral dose, Day 1, children 6-12 yrs, ADHD patients, N = 14, read-out: AUC0-∞", "result": "65.2 ± 23.9", "unit": "ng·h/mL"}, {"measurement": "Cmax", "setting": "[1]; po, 2 mg, single 2 mg oral dose, Day 1, children 6-12 yrs, ADHD patients, N = 14, read-out: Cmax", "result": "2.55 ± 1.03", "unit": "ng/mL"}, {"measurement": "Tmax", "setting": "[1]; po, 2 mg, single 2 mg oral dose, Day 1, children 6-12 yrs, ADHD patients, N = 14, read-out: Tmax", "result": 4.98, "unit": "h"}, {"measurement": "Vd/F", "setting": "[1]; [5]", "result": "766 ± 380", "unit": "L"}, {"measurement": "AUC(0-t)", "setting": "[1]; po, 4 mg, Day 28, 4 mg once daily oral, adolescents 13-17 yrs, ADHD patients, N = 14, read-out: AUC0-24", "result": "117 ± 28.4", "unit": "ng·h/mL"}, {"measurement": "Cmax", "setting": "[1]; po, 4 mg, Day 28, 4 mg once daily oral, adolescents 13-17 yrs, ADHD patients, N = 14, read-out: Cmax", "result": "7.01 ± 1.53", "unit": "ng/mL"}, {"measurement": "Tmax", "setting": "[1]; po, 4 mg, Day 28, 4 mg once daily oral, adolescents 13-17 yrs, ADHD patients, N = 14, read-out: Tmax", "result": 4.97, "unit": "h"}, {"measurement": "AUC(0-t)", "setting": "[1]; po, 4 mg, Day 28, 4 mg once daily oral, children 6-12 yrs, ADHD patients, N = 14, read-out: AUC0-24", "result": "162 ± 116", "unit": "ng·h/mL"}, {"measurement": "Cmax", "setting": "[1]; po, 4 mg, Day 28, 4 mg once daily oral, children 6-12 yrs, ADHD patients, N = 14, read-out: Cmax", "result": "10.1 ± 7.09", "unit": "ng/mL"}, {"measurement": "Tmax", "setting": "[1]; po, 4 mg, Day 28, 4 mg once daily oral, children 6-12 yrs, ADHD patients, N = 14, read-out: Tmax", "result": 5.02, "unit": "h"}, {"measurement": "linearity of pharmacokinetics", "setting": "[1]; single 2 mg doses and multiple 2 mg and 4 mg doses, children (6-12 years) and adolescent (13-17 years) ADHD patients", "result": "linear"}, {"measurement": "CL/F", "setting": "[1]; [6]", "result": "815 ± 214", "unit": "mL/min"}, {"measurement": "λz", "setting": "[1]; [6]", "result": "0.0428 ± 0.0153", "unit": "h⁻¹"}, {"measurement": "CL/F", "setting": "[1]; [7]", "result": "612 ± 252", "unit": "mL/min"}, {"measurement": "λz", "setting": "[1]; [7]", "result": "0.0496 ± 0.0093", "unit": "h⁻¹"}, {"measurement": "AUC(0-t)", "setting": "[2]; 1 mg", "result": "~29.3", "unit": "ng·h/mL"}, {"measurement": "AUC(0-inf)", "setting": "[2]; 1 mg, AUC∞", "result": "~32.4", "unit": "ng·h/mL"}, {"measurement": "Cmax", "setting": "[2]; 1 mg, mean Cmax", "result": "~0.98", "unit": "ng/mL"}, {"measurement": "Tmax", "setting": "[2]; 1 mg, median Tmax", "result": "~6", "unit": "h"}, {"measurement": "half-life", "setting": "[2]; 1 mg, t1/2", "result": "17.5 ± 3.8", "unit": "h"}, {"measurement": "AUC(0-t)", "setting": "[2]; 4 mg", "result": "~120", "unit": "ng·h/mL"}]}]}
